Experimental data from paper PMC12040169 (PLOS Biology, 2025).

Assay: in vitro
Details: human, hela cells, % viability

SMILES | viability at 28.5 h, 10 µM
COc1cc(OC)nc(CN2C(=O)CC3(C2=O)C(=O)N(CC(=O)c2ccccc2)c2ccc(C)cc23)n1 (stereo not shown) [CBK076059] | 96.7%
Cc1ccc(S(=O)(=O)N(C)c2c(C)ccc(S(=O)(=O)N3CCN(C)CC3)c2C)cc1 [CBK265642] | 96.1%
CC(=O)Nc1ccc(CCNC(=O)NCc2nc(C3CC3)no2)cc1 [CBK306221] | 96.1%
COc1ccc(C(C)C)cc1-c1cncc(N2CCC(C(=O)O)CC2)n1 [CBK037900] | 104%
O=C(O)c1cccc(NC(=O)c2ccc(CSc3ccc(Br)cc3)cc2)c1 [CBK263226] | 98.3%
O=C(CCCc1ccccc1)Nc1ccccc1C(=O)O [CBK265516] | 97.4%
Cc1cccc(C(=O)Nc2ccccc2C(=O)Nc2cccc(C(=O)O)c2C)c1 [CBK265911] | 99.4%
Cc1nc(C(F)(F)F)ccc1C(=O)N1C=CC(C(F)(F)F)=NCC1 [CBK057187] | 113%
OCCN1CC2(CCN(CCC(c3ccccc3)c3ccccc3)CC2)c2ccccc21 [CBK126765] | 88.9%
CCOc1ccc(S(=O)(=O)Nc2cnccn2)cc1 [CBK270313] | 121%
COc1ccc([N+](=O)[O-])cc1NC(=O)CSCc1ccc(Br)cc1 [CBK268272] | 90.9%
O=C(O)CCc1ccc(-c2cccs2)n1NC(=O)c1ccc(Cl)cc1 [CBK264738] | 95.5%
CC1CCN(S(=O)(=O)c2cc(C(=O)OCC(=O)c3ccccc3)c(Cl)cc2Cl)CC1 [CBK264470] | 95.6%
CC(=O)Nc1ccc(OCC(O)Cn2nc(-c3ccco3)oc2=O)cc1 (stereo not shown) [CBK305615] | 97.9%
Cc1cccc(CN2CCC3(CCc4ccccc4C(=O)N3)C2)n1 (stereo not shown) [CBK284619] | 106%
Cc1cc(C)nc(NC(=N)NC2Cc3ccccc3C2)n1 [CBK287863] | 43.4%
COc1ccc(CNc2ccc(C3c4ccsc4CCN3C(C)=O)cc2)cc1 (stereo not shown) [CBK286444] | 102%
CSCCC(=O)N1CCC2(CCN(C(=O)c3cc(F)c(F)cc3F)C2)C1 (stereo not shown) [CBK131397] | 99.5%
CC(=O)NC1(c2ccccc2F)CCN(CC(=O)N(C)C)CC1 [CBK283618] | 103%
O=S(=O)(c1ccc(F)cc1)N1CCCC1c1cccc(Cc2ccccc2)n1 (stereo not shown) [CBK286231] | 97.3%
COc1ccc(/C=C/C(=O)NCc2ccc(S(N)(=O)=O)cc2)cc1OC [CBK265483] | 91%
CC(C)Cn1ncc2cc(C(=O)Nc3ccnn3C(C)C)cnc21 [CBK304938] | 79%

SMILES | viability at 28.5 h, 10 µM
COc1ccc(-c2onc(C)c2-c2cnn(-c3ccccc3)c2)c(O)c1 [CBK296095] | 116%
CCCCOC(=O)c1ccc(NC(=O)NCCc2cccs2)cc1 [CBK043381] | 86%
CC(C)(C)OC(=O)NC1CCc2ccccc2N(Cc2ccccc2)C1=O (stereo not shown) [CBK013366] | 97.1%
COC(=O)c1ccc(/C=N/N=C2\NC(=O)C(CC(=O)Nc3ccccc3)S2)cc1 (stereo not shown) [CBK264483] | 93.6%
CC(=O)N1c2ccc(-c3cn4ccc(C)cc4n3)cc2CC1C (stereo not shown) [CBK285191] | 79.2%
CCC#CC(=O)Nc1cncc(OC2CCNCC2)n1 [CBK026731T] | 93%
O=C(NC(c1ccccc1)c1ccsc1)C1CCN(C/C=C/c2ccccc2)CC1 (stereo not shown) [CBK148449] | 89.4%
Cn1c(-c2ccc(CN3CCCC3)cc2)cc2oc(-c3ccccc3SCCO)nc2c1=O [CBK200427T] | 94.7%
O=C(Cc1csc(-c2ccsc2)n1)Nc1nc2c(s1)CCC2 [CBK297935] | 96.8%
O=C(NCCN1CCCC1)c1ccc(N2CCN(C(=O)c3ccccc3C(F)(F)F)CC2)nn1 [CBK153217] | 105%
Cc1ccccc1NS(=O)(=O)c1ccc(OCC(=O)N2CCN(C)CC2)cc1 [CBK267948] | 88.4%
O=C(CSc1nnc(-c2ccccc2O)n1-c1ccccc1)Nc1ccc(N2CCOCC2)cc1 [CBK267874] | 103%
CCc1cc(=O)[nH]c(-c2ccc(N3CC(C(N)=O)CCC3C)nc2)n1 (stereo not shown) [CBK306448] | 93.1%
OCc1cccc(-c2nccnc2NCc2ccc(OC(F)(F)F)cc2)c1 [CBK037476] | 108%
CC(C)C(=O)N1CCC[C@@H]2NC(=O)c3ccccc3OCC/C=C/C[C@@H]21 [CBK292064] | 101%
O=C(C1CCCC1)N1CCC(n2c(=O)oc3ccc(Cl)cc32)CC1 [CBK284344] | 96.7%
Cc1nnc(CS(=O)(=O)Cc2csc(C(C)C)n2)n1C1CC1 [CBK304106] | 101%
CCN(C(=O)c1cc2ccc(N(C)C)cc2[nH]1)C1CCN(C)CC1 [CBK281867] | 79.8%
COc1ccc(CSc2nnc(-c3ccncc3)n2C)cc1[N+](=O)[O-] [CBK269638] | 87.7%
O=C(c1ccoc1)N1CCC2(CCCN(Cc3ccc4ccccc4c3)C2)C1 (stereo not shown) [CBK132811] | 90.1%
O=C(O)c1ccc(NC2CCS(=O)(=O)C2)cc1 (stereo not shown) [CBK287168] | 82.3%
COc1ccc2[nH]c3c(c2c1)CCN1C(c2ccco2)N2CCC31CC2 (stereo not shown) [CBK284432] | 88%

SMILES | viability at 28.5 h, 10 µM
Cc1[nH]nc(Nc2ccc(I)cc2)c1[N+](=O)[O-] [CBK262748] | 86.2%
CN=C(S)N=C(Nc1ccccc1)c1ccccc1 [CBK261037] | 89.1%
O=C(C/C=N/OCc1ccccc1)c1sccc1Cl [CBK021611] | 96%
CC(=O)N1CCN(C(C(=O)O)c2c[nH]c3ccc(NC(=O)C(C)C)cc23)CC1 (stereo not shown) [CBK286634] | 89.7%
COCCCNCCSc1ccc(Cl)cc1 [CBK265093] | 95%
CCC(O)CNc1ccc(C(=O)N2CCC(N3CCOCC3)CC2)cn1 (stereo not shown) [CBK306865] | 95.1%
CC1CN(S(=O)(=O)c2ccc(NC(=O)c3nc(SCc4ccccc4)ncc3Cl)cc2)CC(C)O1 (stereo not shown) [CBK268930] | 89.3%
O=C(C1CCCC1)N1CCCc2cc(C(O)CN3CCCC3)ccc21 (stereo not shown) [CBK282145] | 94.2%
CC(=O)NCC12CC3CC(C1)CC(C(=O)O)(C3)C2 [CBK286768] | 93.8%
Cc1ccc(/C(N)=N/OC(=O)CN(C)S(=O)(=O)c2ccc3ccccc3c2)cc1 [CBK267363] | 104%
O=C(Nc1ccc2c(c1)OCCO2)N1CCCCC1CO (stereo not shown) [CBK156178] | 105%
Cc1cc(C)nc(SCC(=O)N2c3ccccc3C(C)(c3ccc(Cl)cc3)CC2(C)C)n1 (stereo not shown) [CBK073872] | 110%
Cc1ccc(CNC(=O)c2ccc(-n3ccnc3)c(-n3cccc3)c2)o1 [CBK284812] | 99.2%
CCN1CCN(C(=O)CN(CC)S(=O)(=O)c2ccc(Cl)cc2)CC1 [CBK268461] | 88.4%
Cn1ncc(Cl)c1C1CCCCCN1C(=O)c1cc(C2CC2)on1 (stereo not shown) [CBK284973] | 102%
CC(NC(=O)C1CCN(Cc2ccccn2)CC1)c1cccc2ccccc12 (stereo not shown) [CBK148662] | 98.2%
COc1ccccc1N1CCN(C(=O)c2ccc3c(c2)no[n+]3[O-])CC1 [CBK091510] | 85%
CCn1c2ccccc2c2cc(C#N)c(=O)[nH]c21 [CBK013595] | 93.9%
CCCC/C=C/c1cn2ccnc2c(N2CCN(c3ccccn3)CC2)n1 [CBK066224] | 94%
Oc1c(C(Nc2cccnc2)c2cccs2)ccc2cccnc12 (stereo not shown) [CBK268637] | 72.4%
Cc1ccc(OCCNC(=O)C(C)Cn2cccn2)cc1 (stereo not shown) [CBK283252] | 111%
CN(C)c1cccc(Nc2cc(-c3cccc([N+](=O)[O-])c3)ncn2)c1 [CBK091012] | 102%

SMILES | viability at 28.5 h, 10 µM
CC(C)Nc1nccnc1Sc1ccc(N)cc1 [CBK089485] | 77.1%
O=S(=O)(c1ccc(Br)cc1C(F)(F)F)N1CCOCC1 [CBK062405] | 102%
COc1ccc(CNS(=O)(=O)c2cc(OCC(N)=O)c(C)cc2Cl)cc1 [CBK266495] | 110%
O=C1N[C@H]2CCCN(C(=O)c3cncs3)[C@H]2CCCCCOc2ccccc21 [CBK292106] | 98.2%
C=CCn1c(COc2cccc3ccc(C)nc23)nnc1SC [CBK266608] | 94.2%
Cc1ccc(S(=O)(=O)c2cc3c(=O)n4ccccc4nc3n(CCN3CCOCC3)c2=N)cc1 [CBK265637] | 80.3%
Cc1ccc(S(=O)(=O)OC[C@H]2O[C@@H](n3cc(C)c(=O)[nH]c3=O)C[C@H]2O)cc1 [CBK201165] | 88.1%
COc1ccc(C2C(C(=O)c3ccc(C)cc3)=C(O)C(=O)N2CCN(C)C)cc1OC (stereo not shown) [CBK264463] | 90.1%
CS(=O)(=O)Nc1ccc(C(=O)N2CC(=O)Nc3ccccc32)cc1 [CBK269827] | 90.8%
CCOCCNC(=O)c1coc(COc2ccc3sc(C)nc3c2)n1 [CBK306805] | 109%
CCn1c2cc(C)sc2c2cnn(CC(=O)NC(C)C)c(=O)c21 [CBK284172] | 85.8%
Cc1ccc(OCc2nnc(SCC(=O)c3ccc(Br)cc3)n2N)cc1 [CBK266482] | 99.5%
Cc1cccc(N2CCN(CC(=O)Nc3ccc(S(N)(=O)=O)cc3)CC2)c1C [CBK269369] | 96.8%
CCOc1ccc(S(=O)(=O)N(C)c2ccc(OCC(=O)O)cc2)cc1 [CBK296119] | 102%
COCOc1ccc(-c2ncc(OC)nc2NC(=O)c2cc3ccccc3s2)cc1 [CBK145250] | 103%
Cc1cc(Cl)ccc1Nc1nnc(C)c(=O)[nH]1 [CBK287922] | 110%
COc1ccc(/C=C2/SC(=O)N(CCNC3=NS(=O)(=O)c4ccccc43)C2=O)cc1 [CBK265545] | 83.4%
C/C(=N\OCC(=O)N(Cc1ccccc1)c1ccccc1C(=O)O)c1cccs1 [CBK077414] | 94.2%
CS(=O)(=O)N(Cc1cc2ccccc2nc1O)CC1CCCO1 (stereo not shown) [CBK269517] | 86.1%
CC1CCC(NC(=O)CN2C3CCC2CC(O)(c2ccco2)C3)CC1 (stereo not shown) [CBK284036] | 91%

Same assay, conditions: human, hela cells, % viability, bulk resorufin, single well

SMILES | viability at 28.5 h, 10 µM
COC(=O)c1ccccc1NC(C)=O [CBK003522] | 107%
CC(N)c1cc2ccccc2o1 (stereo not shown) [CBK001492C] | 97.7%
